Experimental data reported in patent publication US20120121591A1 (priority 2009, published 2012).

Legend:
Format in all cases: cell-based
[1] = target: hKv1.3 (Homo sapiens, UniProt P22001); assay: cell-based; conditions: Kv1.3 (IWQ) IC50 (nM, Avg)
[2] = system: IL-2 secretion from T cells in human whole blood; conditions: read-out: WB (IL-2) IC50 (nM, Avg)
[3] = system: IFN-g secretion from T cells in human whole blood; conditions: read-out: WB (IFNg) IC50 (nM, Avg)

Sequence of hKv1.3 (P22001 whole entry): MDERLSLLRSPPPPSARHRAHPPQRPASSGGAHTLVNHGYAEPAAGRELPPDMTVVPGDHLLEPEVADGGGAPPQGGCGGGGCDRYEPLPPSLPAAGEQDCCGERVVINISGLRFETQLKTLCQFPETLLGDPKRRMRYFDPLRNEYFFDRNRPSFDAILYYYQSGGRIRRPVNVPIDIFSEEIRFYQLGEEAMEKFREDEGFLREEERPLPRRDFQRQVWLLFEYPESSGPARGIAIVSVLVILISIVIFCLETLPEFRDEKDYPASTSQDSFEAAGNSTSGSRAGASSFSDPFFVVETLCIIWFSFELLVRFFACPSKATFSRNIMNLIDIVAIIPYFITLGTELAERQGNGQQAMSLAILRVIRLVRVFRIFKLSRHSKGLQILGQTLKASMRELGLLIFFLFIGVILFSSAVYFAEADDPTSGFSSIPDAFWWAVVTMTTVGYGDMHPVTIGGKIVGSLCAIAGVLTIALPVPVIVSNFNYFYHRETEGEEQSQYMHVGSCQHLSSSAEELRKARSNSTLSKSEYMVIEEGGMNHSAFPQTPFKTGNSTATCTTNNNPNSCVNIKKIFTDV

Structure (SMILES)	IC50 [1]	IC50 [2]	IC50 [3]
CC[C@H](C)[C@@H]1NC(=O)[C@@H](NC(=O)[C@H](CO)NC(=O)[C@@H](N)CCCNC(=N)N)CSSC[C@@H](C(N)=O)NC(=O)[C@H]([C@@H](C)O)NC(=O)CNC(=O)[C@@H]2CSSC[C@@H]3NC(=O)[C@H](CCCCN)NC(=O)[C@H](Cc4ccccc4)NC(=O)[C@H](C)NC(=O)[C@H]([C@@H](C)O)NC(=O)[C@H](CSSC[C@H](NC(=O)[C@H](Cc4ccccc4)NC(=O)[C@H](CO)NC(=O)[C@H](CC(C)C)NC(=O)[C@H](CCCNC(=N)N)NC(=O)[C@H](Cc4ccc(O)cc4)NC(=O)[C@H](CCCCN)NC(=O)[C@H](CO)NC(=O)[C@H](CO)NC(=O)[C@H](Cc4c[nH]cn4)NC(=O)[C@H](CCCCN)NC3=O)C(=O)N[C@@H](CCCNC(=N)N)C(=O)N[C@@H](CCCCN)C(=O)N[C@@H]([C@@H](C)O)C(=O)N2)NC(=O)[C@H](CCCNC(=N)N)NC(=O)[C@H](CO)NC(=O)[C@H](CCCCN)NC(=O)[C@@H]2CCCN2C(=O)[C@H]([C@@H](C)CC)NC(=O)[C@H]([C@@H](C)O)NC(=O)[C@H](CC(=O)O)NC1=O [[Lys16, Ser21]ShK-amide]	0.068 nM	1.45 nM	1.71 nM
CC[C@H](C)[C@@H]1NC(=O)[C@H]([C@@H](C)O)NC(=O)[C@H](CC(=O)O)NC(=O)[C@H](Cc2cccc3ccccc23)NC(=O)[C@@H](NC(=O)[C@H](CO)NC(=O)[C@@H](N)CCCNC(=N)N)CSSC[C@@H](C(=O)O)NC(=O)[C@H]([C@@H](C)O)NC(=O)CNC(=O)[C@@H]2CSSC[C@@H]3NC(=O)[C@H](CCC(N)=O)NC(=O)[C@H](Cc4ccccc4)NC(=O)[C@H](C)NC(=O)[C@H]([C@@H](C)O)NC(=O)[C@H](CSSC[C@H](NC(=O)[C@H](Cc4ccccc4)NC(=O)[C@H](CO)NC(=O)[C@H](CC(C)C)NC(=O)[C@H](CCCNC(=N)N)NC(=O)[C@H](Cc4ccc(O)cc4)NC(=O)[C@H](CCCCN)NC(=O)[C@H](CCSC)NC(=O)[C@H](CO)NC(=O)[C@H](Cc4c[nH]cn4)NC(=O)[C@H](CCCCN)NC3=O)C(=O)N[C@@H](CCCNC(=N)N)C(=O)N[C@@H](CCCCN)C(=O)N[C@@H]([C@@H](C)O)C(=O)N2)NC(=O)[C@H](CCCNC(=N)N)NC(=O)[C@H](CO)NC(=O)[C@H](CCCCN)NC(=O)[C@@H]2CCCN2C1=O [[1-Nal4]ShK]	0.15 nM	0.274 nM	0.317 nM
CCCC[C@@H]1NC(=O)[C@H](CO)NC(=O)[C@H](Cc2c[nH]cn2)NC(=O)[C@H](CCCCN)NC(=O)[C@@H]2CSSC[C@@H]3NC(=O)[C@H]([C@@H](C)O)NC(=O)[C@H](CCCNC(=N)N)NC(=O)[C@H](CCCNC(=N)N)NC(=O)[C@H](CSSC[C@H](NC(=O)[C@H](CCCNC(=N)N)NC(=O)[C@H](CO)NC(=O)[C@H](CCCCN)NC(=O)[C@@H]4CCCN4C(=O)[C@H]([C@@H](C)CC)NC(=O)[C@H]([C@@H](C)O)NC(=O)[C@H](CC(=O)O)NC(=O)[C@H](CCC(=O)O)NC(=O)[C@@H](NC(=O)[C@H](CO)NC(=O)[C@@H](N)CCCNC(=N)N)CSSC[C@@H](C(N)=O)NC(=O)[C@H]([C@@H](C)O)NC(=O)CNC3=O)C(=O)N[C@@H]([C@@H](C)O)C(=O)N[C@@H](C)C(=O)N[C@@H](C)C(=O)N[C@@H](CCCCN)C(=O)N2)NC(=O)[C@H](Cc2ccccc2)NC(=O)[C@H](CO)NC(=O)[C@H](CC(C)C)NC(=O)[C@H](CCCNC(=N)N)NC(=O)[C@H](Cc2ccc(O)cc2)NC(=O)[C@H](CCCCN)NC1=O [[Glu4,Ala15,Lys16,Nle21, Arg30]ShK-amide]	0.118 nM	0.647 nM	0.816 nM
CC[C@H](C)[C@@H]1NC(=O)[C@H]([C@@H](C)O)NC(=O)[C@H](CC(=O)O)NC(=O)[C@H](CCC(=O)O)NC(=O)[C@@H](NC(=O)[C@H](CO)NC(=O)[C@@H](N)CCCNC(=N)N)CSSC[C@@H](C(N)=O)NC(=O)[C@H]([C@@H](C)O)NC(=O)CNC(=O)[C@@H]2CSSC[C@@H]3NC(=O)[C@H](CCCCN)NC(=O)[C@H](Cc4ccccc4)NC(=O)[C@H](C)NC(=O)[C@H]([C@@H](C)O)NC(=O)[C@H](CSSC[C@H](NC(=O)[C@H](Cc4ccccc4)NC(=O)[C@H](CO)NC(=O)[C@H](CC(C)C)NC(=O)[C@H](CCCNC(=N)N)NC(=O)[C@H](Cc4ccc(O)cc4)NC(=O)[C@H](CCCCN)NC(=O)[C@H](CCSC)NC(=O)[C@H](CO)NC(=O)[C@H](Cc4c[nH]cn4)NC(=O)[C@H](CCCNC(=N)N)NC3=O)C(=O)N[C@@H](CCCCN)C(=O)N[C@@H](CCCNC(=N)N)C(=O)N[C@@H]([C@@H](C)O)C(=O)N2)NC(=O)[C@H](CCCNC(=N)N)NC(=O)[C@H](CO)NC(=O)[C@H](CCCCN)NC(=O)[C@@H]2CCCN2C1=O [[Glu4; Lys16, 29;Arg18, 30]ShK-amide]	0.192 nM	0.203 nM	0.353 nM
CC[C@H](C)[C@@H]1NC(=O)[C@@H](NC(=O)[C@H](CO)NC(=O)[C@@H](N)CCCNC(=N)N)CSSC[C@@H](C(N)=O)NC(=O)[C@H]([C@@H](C)O)NC(=O)CNC(=O)[C@@H]2CSSC[C@@H]3NC(=O)[C@H](CCCCN)NC(=O)[C@H](Cc4ccccc4)NC(=O)[C@H](C)NC(=O)[C@H]([C@@H](C)O)NC(=O)[C@H](CSSC[C@H](NC(=O)[C@H](Cc4ccccc4)NC(=O)[C@H](CO)NC(=O)[C@H](CC(C)C)NC(=O)[C@H](CCCNC(=N)N)NC(=O)[C@H](Cc4ccc(O)cc4)NC(=O)[C@H](CCCCN)NC(=O)[C@H](CC[S+](C)[O-])NC(=O)[C@H](CO)NC(=O)[C@H](Cc4c[nH]cn4)NC(=O)[C@H](CCCCN)NC3=O)C(=O)N[C@@H](CCCNC(=N)N)C(=O)N[C@@H](CCCCN)C(=O)N[C@@H]([C@@H](C)O)C(=O)N2)NC(=O)[C@H](CCCNC(=N)N)NC(=O)[C@H](CO)NC(=O)[C@H](CCCCN)NC(=O)[C@@H]2CCCN2C(=O)[C@H]([C@@H](C)CC)NC(=O)[C@H]([C@@H](C)O)NC(=O)[C@H](CC(=O)O)NC1=O (stereo partly drawn) [[Lys16, Met(O)21]ShK-amide]	0.106 nM	0.24 nM	0.289 nM
CC[C@H](C)[C@@H]1NC(=O)[C@@H](NC(=O)[C@H](CO)NC(=O)[C@@H](N)CCCNC(=N)N)CSSC[C@@H](C(=O)O)NC(=O)[C@H]([C@@H](C)O)NC(=O)CNC(=O)[C@@H]2CSSC[C@@H]3NC(=O)[C@H](CCCCN)NC(=O)[C@H](Cc4ccccc4)NC(=O)[C@H](C)NC(=O)[C@H]([C@@H](C)O)NC(=O)[C@H](CSSC[C@H](NC(=O)[C@H](Cc4ccccc4)NC(=O)[C@H](CO)NC(=O)[C@H](CC(C)C)NC(=O)[C@H](CCCNC(=N)N)NC(=O)[C@H](Cc4ccc(O)cc4)NC(=O)[C@H](CCCCN)NC(=O)[C@H](CCSC)NC(=O)[C@H](CO)NC(=O)[C@H](Cc4c[nH]cn4)NC(=O)[C@H](CCCNC(=N)N)NC3=O)C(=O)N[C@@H](CCCNC(=N)N)C(=O)N[C@@H](CCCCN)C(=O)N[C@@H]([C@@H](C)O)C(=O)N2)NC(=O)[C@H](CCCNC(=N)N)NC(=O)[C@H](CO)NC(=O)[C@H](CCCCN)NC(=O)[C@@H]2CCCN2C(=O)[C@H]([C@@H](C)CC)NC(=O)[C@H]([C@@H](C)O)NC(=O)[C@H](CC(=O)O)NC1=O [[Lys16,Arg18]ShK]	0.425 nM	0.077 nM	0.097 nM
CCC[C@@H]1NC(=O)[C@H](CO)NC(=O)[C@H](Cc2c[nH]cn2)NC(=O)[C@H](CCCCN)NC(=O)[C@@H]2CSSC[C@@H]3NC(=O)[C@H]([C@@H](C)O)NC(=O)[C@H](CCCCN)NC(=O)[C@H](CCCNC(=N)N)NC(=O)[C@H](CSSC[C@H](NC(=O)[C@H](CCCNC(=N)N)NC(=O)[C@H](CO)NC(=O)[C@H](CCCCN)NC(=O)[C@@H]4CCCN4C(=O)[C@H]([C@@H](C)CC)NC(=O)[C@H]([C@@H](C)O)NC(=O)[C@H](CC(=O)O)NC(=O)[C@H]([C@@H](C)CC)NC(=O)[C@@H](NC(=O)[C@H](CO)NC(=O)[C@@H](N)CCCNC(=N)N)CSSC[C@@H](C(=O)NCCC(=O)O)NC(=O)[C@H]([C@@H](C)O)NC(=O)CNC3=O)C(=O)N[C@@H]([C@@H](C)O)C(=O)N[C@@H](C)C(=O)N[C@@H](Cc3ccccc3)C(=O)N[C@@H](CCCCN)C(=O)N2)NC(=O)[C@H](Cc2ccccc2)NC(=O)[C@H](CO)NC(=O)[C@H](CC(C)C)NC(=O)[C@H](CCCNC(=N)N)NC(=O)[C@H](Cc2ccc(O)cc2)NC(=O)[C@H](CCCCN)NC1=O [[Lys16,Nva21]ShK-betaAla]	12.6 nM	0.304 nM	0.231 nM
CC[C@H](C)[C@@H]1NC(=O)[C@@H](NC(=O)[C@H](CO)NC(=O)[C@@H](N)CCCNC(=N)N)CSSC[C@@H](C(=O)O)NC(=O)[C@H]([C@@H](C)O)NC(=O)CNC(=O)[C@@H]2CSSC[C@@H]3NC(=O)[C@H](CCC(N)=O)NC(=O)[C@H](Cc4ccccc4)NC(=O)[C@H](C)NC(=O)[C@H]([C@@H](C)O)NC(=O)[C@H](CSSC[C@H](NC(=O)[C@H](Cc4ccccc4)NC(=O)[C@H](CO)NC(=O)[C@H](CCCCN)NC(=O)[C@H](CCCNC(=N)N)NC(=O)[C@H](Cc4ccc(O)cc4)NC(=O)[C@H](CCCCN)NC(=O)[C@H](CCSC)NC(=O)[C@H](CO)NC(=O)[C@H](Cc4c[nH]cn4)NC(=O)[C@H](CCCCN)NC3=O)C(=O)N[C@@H](CCCNC(=N)N)C(=O)N[C@@H](CCCCN)C(=O)N[C@@H]([C@@H](C)O)C(=O)N2)NC(=O)[C@H](CCCNC(=N)N)NC(=O)[C@H](CO)NC(=O)[C@H](CCCCN)NC(=O)[C@@H]2CCCN2C(=O)[C@H]([C@@H](C)CC)NC(=O)[C@H]([C@@H](C)O)NC(=O)[C@H](CC(=O)O)NC1=O [[Lys25]ShK]	0.101 nM	0.226 nM	0.366 nM
